# ChEMBL document CHEMBL1121920, “Synthesis and biological evaluation of the methyl esters of (+)-12-fluoro-13,14-dihydroprostaglandin F2alpha and (+)-15-epi-12-fluoro-13,14-dihydroprostaglandin F2alpha” (1981)
# Experiments:
# Cricetinae gen. sp. = experiment: Compound was evaluated for uterine contraction relative to PGF2-alpha in hamsters; assay type: functional, hamster
# Gerbillinae = experiment: Compound was evaluated for gerbil colon contraction relative to PGF2-alpha; assay type: functional
SMILES,Potency (Cricetinae gen. sp.),Potency (Gerbillinae)
CCCCC[C@H](O)CC[C@@]1(F)[C@H](O)C[C@H](O)[C@@H]1C/C=C\CCCC(=O)OC,0.016,0.004
CCCCC[C@@H](O)CC[C@@]1(F)[C@H](O)C[C@H](O)[C@@H]1C/C=C\CCCC(=O)OC,0.005,0.001
CCCCC[C@H](O)CC[C@@H]1[C@@H](C/C=C\CCCC(=O)OC)[C@@H](O)C[C@H]1O,0.95,0.11
CCCCC[C@H](O)/C=C/[C@@]1(F)[C@H](O)C[C@H](O)[C@@H]1C/C=C\CCCC(=O)OC,0.28,0.001
CCCCC[C@@H](O)/C=C/[C@@]1(F)[C@H](O)C[C@H](O)[C@@H]1C/C=C\CCCC(=O)OC,0.022,0.011
CCCCC[C@H](O)/C=C/[C@@H]1[C@@H](C/C=C\CCCC(=O)O)[C@@H](O)C[C@H]1O [DINOPROST],1,1
